Results: patent US20060069132A1, “Azolecarboxamide herbicides” (priority 2004, published 2006)

What was measured:
giant foxtail [1] = test: Test B pre-/postemergence herbicide test; assay type: in vivo, Setaria faberi
Text: (§1) Seeds selected from barnyardgrass (Echinochloa crus-galli (L.) Beauv.), Surinam grass (Urochloa decumbens (Staph) R. D. Webster, previously named Brachiaria decumbens Stapf), cocklebur (Xanthium strumarium L.), corn (Zea mays L.), large crabgrass (Digitaria sanguinalis (L.) Scop.), giant foxtail (Setaria faberi Herim.), lambsquarters (Chenopodium album L.), morningglory (Ipomoea coccinea L.), pigweed (Amaranthus retroflexus L.), rice (Oryza sativa L.) and velvetleaf (Abutilon theophrasti Medik.) were planted and treated preemergence with test chemicals formulated in a non-phytotoxic solvent mixture which included a surfactant.
(§2) At the same time, plants selected from these crop and weed species and also blackgrass (Alopecurus myosuroides Huds.), wheat (Triticum aestivum L.) and wild oat (Avena fatua L.) were treated with postemergence applications of test chemicals formulated in the same manner. Plants ranged in height from 2 to 18 cm (1- to 4-leaf stage) for postemergence treatments. Plant species in the flooded paddy test consisted of rice (Oryza sativa L.), small flower umbrella sedge (Cyperus difformis L.), ducksalad (Heteranthera limosa (Sw.) Willd.) and barnyardgrass (Echinochloa crus-galli (L.) Beauv.) grown to the 2-leaf stage for testing. Treated plants and controls were maintained in a greenhouse for 13 to 15 days, after which time all species were compared to controls and visually evaluated. Plant response ratings, summarized in Table B, are based on a scale of 0 to 100 where 0 is no effect and 100 is complete control. A dash (-) response means no test result.

barnyardgrass [2] = test: Test B pre-/postemergence herbicide test; assay type: in vivo, Echinochloa crus-galli; details: for Barnyardgrass plant response rating: Postemergence, scale 0 (no effect) to 100 (complete control)
Text: as §1, §2

blackgrass = test: Test B postemergence herbicide test; assay type: in vivo, Alopecurus myosuroides
Method: as §2

cocklebur = test: Test B pre-/postemergence herbicide test; assay type: in vivo, Xanthium strumarium
Text: as §1, §2

pigweed = test: Test B pre-/postemergence herbicide test; assay type: in vivo, Amaranthus retroflexus
Text: as §1, §2

[3] = tested on: small flower umbrella sedge; test: Test B flooded paddy test; assay type: in vivo, Cyperus difformis; details: 1000 g ai/ha, scale 0 to 100 (0 no effect, 100 complete control)
Method: as §2

Surinam grass = test: Test B pre-/postemergence herbicide test; assay type: in vivo, Urochloa decumbens
Text: as §1, §2

lambsquarters = test: Test B pre-/postemergence herbicide test; assay type: in vivo, Chenopodium album
Text: as §1, §2

rice = test: Test B flooded paddy test; assay type: in vivo, Oryza sativa; details: 1000 g ai/ha, scale 0 to 100 (0 no effect, 100 complete control)
Method: as §2

wild oat = test: Test B postemergence herbicide test; assay type: in vivo, Avena fatua
Method: as §2

corn = test: Test B pre-/postemergence herbicide test; assay type: in vivo, Zea mays
Text: as §1, §2

barnyardgrass [4] = test: Test B flooded paddy test; assay type: in vivo, Echinochloa crus-galli; details: 1000 g ai/ha, scale 0 to 100 (0 no effect, 100 complete control)
Method: as §2

velvetleaf [5] = test: Test B pre-/postemergence herbicide test; assay type: in vivo, Abutilon theophrasti
Text: as §1, §2

morningglory [6] = test: Test B pre-/postemergence herbicide test; assay type: in vivo, Ipomoea coccinea
Text: as §1, §2

large crabgrass [7] = test: Test B pre-/postemergence herbicide test; assay type: in vivo, Digitaria sanguinalis
Text: as §1, §2

wheat = test: Test B postemergence herbicide test; assay type: in vivo, Triticum aestivum; design: key to Wheat plant response rating: 0 = no effect, 100 = complete control
Method: as §2

ducksalad = test: Test B flooded paddy test; assay type: in vivo, Heteranthera limosa; details: 1000 g ai/ha, scale 0 to 100 (0 no effect, 100 complete control)
Method: as §2

redroot pigweed = test: Test A pre-/postemergence herbicide test; assay type: in vivo, Amaranthus retroflexus
Text: (§3) Seeds of plant species selected from barnyardgrass (Echinochloa crus-galli (L.) Beauv.), downy bromegrass (Bromus tectorum L.), large crabgrass (Digitaria sanguinalis (L.) Scop.), giant foxtail (Setaria faberi Herrm.), morningglory (Ipomoea spp.), redroot pigweed (Amaranthus retroflexus L.) and velvetleaf (Abutilon theophrasti Medik.) were planted into a sandy loam soil and treated preemergence with a directed soil spray using test chemicals formulated in a non-phytotoxic solvent mixture which included a surfactant. At the same time plants selected from these species were also treated postemergence by spraying to runoff with test chemicals formulated.
(§4) Plants ranged in height from 2 to 10 cm and were in the one- to two-leaf stage for the postemergence treatment. Treated plants and untreated controls were maintained in a greenhouse for approximately ten days, after which time all treated plants were compared to untreated controls and visually evaluated for injury. Plant response ratings, summarized in Table A, are based on a 0 to 100 scale where 0 is no effect and 100 is complete control. A dash (-) response means no test results.

barnyardgrass [8] = test: Test A pre-/postemergence herbicide test; assay type: in vivo, Echinochloa crus-galli
Text: as §3, §4

morningglory [9] = test: Test A pre-/postemergence herbicide test; assay type: in vivo, Ipomoea spp.
Text: as §3, §4

velvetleaf [10] = test: Test A pre-/postemergence herbicide test; assay type: in vivo, Abutilon theophrasti
Text: as §3, §4

giant foxtail [11] = test: Test A pre-/postemergence herbicide test; assay type: in vivo, Setaria faberi
Text: as §3, §4

large crabgrass [12] = test: Test A pre-/postemergence herbicide test; assay type: in vivo, Digitaria sanguinalis
Text: as §3, §4

[13] = 125 g ai/ha, 0 is no effect, 100 is complete control, preemergence
[14] = Postemergence, 500 g ai/ha, scale 0 (no effect) to 100 (complete control)
[15] = postemergence, 125 g ai/ha, scale 0 to 100
[16] = Postemergence, 500 g ai/ha, 0 to 100 scale, 0 no effect, 100 complete control
[17] = Postemergence, 2000 g ai/ha, 0 to 100 scale, 0 no effect, 100 complete control
[18] = Preemergence, 500 g ai/ha, visual rating, 0 to 100 scale (0 no effect, 100 complete control)
[19] = Preemergence, 2000 g ai/ha, visual rating, 0 to 100 scale (0 no effect, 100 complete control)

## CCOC(=O)c1ccnc(NC(=O)c2nn(C(C)(C)C)nc2C)c1 [Compound 421]
Giant foxtail [1]; [13]
  Plant response rating (0 to 100 scale), Foxtail, Giant: 0
Giant foxtail [1]; [14]
  Foxtail, Giant plant response rating: 0
Giant foxtail [1]; [15]
  Foxtail, Giant plant response rating: 0
Barnyardgrass [2]; [13]
  Plant response rating (0 to 100 scale), Barnyardgrass: 0
Barnyardgrass [2]; 125 g ai/ha
  Barnyardgrass plant response rating: 0
Barnyardgrass [2]; 500 g ai/ha
  Barnyardgrass plant response rating: 0
blackgrass; [14]
  Blackgrass plant response rating: 20
blackgrass; [15]
  Blackgrass plant response rating: 20
cocklebur; [13]
  Plant response rating (0 to 100 scale), Cocklebur: 0
cocklebur; [14]
  Cocklebur plant response rating: 0
cocklebur; [15]
  Cocklebur plant response rating: 0
pigweed; [13]
  Plant response rating (0 to 100 scale), Pigweed: 0
pigweed; [14]
  Pigweed plant response rating: 0
pigweed; [15]
  Pigweed plant response rating: 0
[3]
  Sedge, Umbrella plant response rating: 0
Surinam grass; [13]
  Plant response rating (0 to 100 scale), Surinam Grass: 0
Surinam grass; [14]
  Surinam Grass plant response rating: 0
Surinam grass; [15]
  Surinam Grass plant response rating: 0
lambsquarters; [13]
  Plant response rating (0 to 100 scale), Lambsquarters: 0
lambsquarters; [14]
  Lambsquarters plant response rating: 0
lambsquarters; [15]
  Lambsquarters plant response rating: 0
rice
  Rice plant response rating: 0
Wild oat; [14]
  Oat, Wild plant response rating: 0
Wild oat; [15]
  Oat, Wild plant response rating: 0
corn; [13]
  Plant response rating (0 to 100 scale), Corn: 0
corn; [14]
  Corn plant response rating: 0
corn; [15]
  Corn plant response rating: 0
Barnyardgrass [4]
  Barnyardgrass plant response rating: 0
Velvetleaf [5]; [13]
  Plant response rating (0 to 100 scale), Velvetleaf: 0
Velvetleaf [5]; [14]
  Velvetleaf plant response rating: 0
Velvetleaf [5]; [15]
  Velvetleaf plant response rating: 0
Morningglory [6]; [13]
  Plant response rating (0 to 100 scale), Morningglory: 0
Morningglory [6]; [14]
  Morningglory plant response rating: 0
Morningglory [6]; [15]
  Morningglory plant response rating: 0
Large crabgrass [7]; [13]
  Plant response rating (0 to 100 scale), Crabgrass, Large: 0
Large crabgrass [7]; [14]
  Crabgrass, Large plant response rating: 0
Large crabgrass [7]; [15]
  Crabgrass, Large plant response rating: 0
wheat; 500 g ai/ha, scale 0 to 100, 0 no effect, 100 complete control, preemergence
  Wheat plant response rating: 0
wheat; [14]
  Wheat plant response rating: 0
wheat; [15]
  Wheat plant response rating: 0
ducksalad
  Ducksalad plant response rating: 0

## Cn1nc(C(C)(C)C)cc1C(=O)Nc1cccc2c1CCCC2=NO [Compound 116]
Redroot pigweed; [16]
  Pigweed plant response rating: 0
Redroot pigweed; [17]
  Plant response rating, Pigweed: 0
Redroot pigweed; [18]
  Pigweed plant response rating: 0
Redroot pigweed; [19]
  Pigweed plant response rating: 0
Barnyardgrass [8]; [16]
  Barnyardgrass plant response rating: 0
Barnyardgrass [8]; [17]
  Plant response rating, Barnyardgrass: 25
Barnyardgrass [8]; [18]
  Barnyardgrass plant response rating: 35
Barnyardgrass [8]; [19]
  Barnyardgrass plant response rating: 70
Morningglory [9]; [16]
  Morningglory plant response rating: 0
Morningglory [9]; [17]
  Plant response rating, Morningglory: 0
Morningglory [9]; [18]
  Morningglory plant response rating: 0
Morningglory [9]; [19]
  Morningglory plant response rating: 10
Velvetleaf [10]; [16]
  Velvetleaf plant response rating: 0
Velvetleaf [10]; [17]
  Plant response rating, Velvetleaf: 0
Velvetleaf [10]; [18]
  Velvetleaf plant response rating: 0
Velvetleaf [10]; [19]
  Velvetleaf plant response rating: 0
Giant foxtail [11]; [16]
  Foxtail, Giant plant response rating: 0
Giant foxtail [11]; [17]
  Plant response rating, Foxtail, Giant: 0
Giant foxtail [11]; [18]
  Foxtail, Giant plant response rating: 20
Giant foxtail [11]; [19]
  Foxtail, Giant plant response rating: 35
Large crabgrass [12]; [16]
  Crabgrass, Large plant response rating: 0
Large crabgrass [12]; [17]
  Plant response rating, Crabgrass, Large: 10
Large crabgrass [12]; [18]
  Crabgrass, Large plant response rating: 45
Large crabgrass [12]; [19]
  Crabgrass, Large plant response rating: 80
